Measured values taken from the supplement of paper PMC11061612.

Assays:
Test in all cases: Bliss excess, mean over the matrix (fraction); higher = more synergy
[1] = system: UMC-11 (Other Solid Carcinomas)
How it was run: (§1)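 Cell lines in DMEM/F12 or RPMI with 10% FBS were plated in 1536-well plates, held 24 hours at 37°C, 5% CO2, then given two-drug dose matrices for 72 hours (DMSO typically 0.2%). Viability was read by CellTiter-Glo 2.0 luminescence and scaled as inhibition from 0 (vehicle wells) to 1 (blank wells). Combination Emax is the second-highest inhibition in the matrix; Bliss excess is observed combination effect minus expected EA + EB − EA·EB, EA and EB being single-agent effects.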

[2] = system: SW1116 (Colorectal Carcinoma)
How it was run: as §1

[3] = system: TE-4 (Esophageal Squamous Cell Carcinoma)
How it was run: as §1

[4] = system: RKO (Colorectal Carcinoma)
How it was run: as §1

[5] = system: SU-DHL-6 (B-Cell Non-Hodgkin's Lymphoma)
How it was run: as §1

[6] = system: MHH-PREB-1 (B-Cell Non-Hodgkin's Lymphoma)
How it was run: as §1

NCI-H28 (Mesothelioma) = system: NCI-H28 (Mesothelioma)
How it was run: as §1

HMV-II (Melanoma) = system: HMV-II (Melanoma)
How it was run: as §1

[7] = system: LoVo (Colorectal Carcinoma)
How it was run: as §1

[8] = system: HARA (Squamous Cell Lung Carcinoma)
How it was run: as §1

NB14 (Neuroblastoma) = system: NB14 (Neuroblastoma)
How it was run: as §1

[9] = system: K5 (Thyroid Gland Carcinoma)
How it was run: as §1

Mewo (Melanoma) = system: Mewo (Melanoma)
How it was run: as §1

[10] = system: Hs-633T (Other Solid Carcinomas)
How it was run: as §1

[11] = system: SUP-T1 (T-Lymphoblastic Leukemia)
How it was run: as §1

[12] = system: HDLM-2 (Hodgkin's Lymphoma)
How it was run: as §1

[13] = system: 639-V (Bladder Carcinoma)
How it was run: as §1

NCI-H2461 (Mesothelioma) = system: NCI-H2461 (Mesothelioma)
How it was run: as §1

[14] = system: RT-112 (Bladder Carcinoma)
How it was run: as §1

[15] = system: HCC-15 (Squamous Cell Lung Carcinoma)
How it was run: as §1

SMILES	Bliss excess [1]	Bliss excess [2]	Bliss excess [3]	Bliss excess [4]	Bliss excess [5]	Bliss excess [6]	Bliss excess (NCI-H28 (Mesothelioma))	Bliss excess (HMV-II (Melanoma))	Bliss excess [7]	Bliss excess [8]	Bliss excess (NB14 (Neuroblastoma))	Bliss excess [9]	Bliss excess (Mewo (Melanoma))	Bliss excess [10]	Bliss excess [11]	Bliss excess [12]	Bliss excess [13]	Bliss excess (NCI-H2461 (Mesothelioma))	Bliss excess [14]	Bliss excess [15]
Cc1cc2ncnn2cc1Nc1ncc2c(n1)n(C1CCOCC1)c(=O)n2C [AZD7648] + CN(C)CCCOc1ccc(-c2ccc3ncc4c(c3c2)n(C2CCOCC2)c(=O)n4C)cn1 [AZD0156] (first compound max 10 µM, 7x7, partner max 1 µM)	0.0196	-0.0064	0.0139	0.0317	-0.0502	0.118	-0.0195	-0.0169	-0.0469	0.0352	0.0053	-0.0226	0.0033	0.0271	-0.0241	-0.0381	0.0192	-0.0442	0.0229	0.0013
C=CCn1c(=O)c2cnc(Nc3ccc(N4CCN(C)CC4)cc3)nc2n1-c1cccc(C(C)(C)O)n1 [AZD1775] + C1CN(CCC1(C(=O)N[C@@H](CCO)C2=CC=C(C=C2)Cl)N)C3=NC=NC4=C3C=CN4 [Capivasertib] (first compound max 3 µM, partner max 3 µM)	0.0101	-0.0561	-0.045	0.0179	0.0012	-0.005	-0.0725	-0.0774	0.0281	-0.0002	-0.0551	0.0493	-0.0433	0.0389	-0.0212	-0.0503	-0.0541	-0.0587	-0.0348	-0.0331
CN(CCO)CC[C@H](CSc1ccccc1)Nc1ccc(S(=O)(=O)NC(=O)c2ccc(N3CCC([C@@H](O)c4ccccc4-c4ccc(Cl)cc4)CC3)cc2)cc1S(=O)(=O)C(F)(F)F [AZD4320] + CCN(CCO)CCCOc1ccc2c(Nc3cc(CC(=O)Nc4cccc(F)c4)[nH]n3)ncnc2c1 [AZD2811] (first compound max 1 µM, 7x7, partner max 1 µM)	-0.0565	-0.0299	-0.0186	-0.0162	0.0635	0.0034	-0.0045	-0.0357	-0.0278	0.106	0	-0.0283	0.0053	-0.0212	0.0933	0.0781	0.0502	-0.0195	0.172	-0.0091
Cc1c2c(nn1C)CSCc1cc(n(C)n1)CSc1cc(c3ccccc3c1)OCCCc1c(C(=O)O)n(C)c3c-2c(Cl)ccc13 [AZD5991] + C1CN(CCC1(C(=O)N[C@@H](CCO)C2=CC=C(C=C2)Cl)N)C3=NC=NC4=C3C=CN4 [Capivasertib] (first compound max 1 µM, 7x7, partner max 3 µM)	0.0253	-0.0238	0.0626	0.0296	-0.0035	-0.0283	-0.0315	-0.0307	-0.069	-0.0041	0.0283	-0.021	-0.0536	0.0123	-0.0218	0.0369	-0.0036	-0.0345	0.0563	0.0441
CCN(CCO)CCCOc1ccc2c(Nc3cc(CC(=O)Nc4cccc(F)c4)[nH]n3)ncnc2c1 [AZD2811] + C[C@@H]1COCCN1C2=NC(=NC(=C2)C3(CC3)[S@](=N)(=O)C)C4=C5C=CNC5=NC=C4 [AZD6738] (first compound max 1 µM, 7x7, partner max 10 µM)	-0.0488	-0.0234	-0.047	-0.0152	0.0131	-0.0608	-0.0554	-0.0395	-0.104	0.0144	-0.0888	-0.086	-0.0399	-0.0197	-0.0291	-0.0357	-0.0164	-0.0728	-0.0581	-0.0238
COc1nnc2ccc(N3CCC(c4ccc(OCCN5CCN(C)C(=O)[C@H]5C)cc4)CC3)nn12 [AZD5153] + Cn1cnc2c(F)c(Nc3ccc(Br)cc3Cl)c(C(=O)NOCCO)cc21 [Selumetinib] (first compound max 1 µM, 7x7, partner max 10 µM)	-0.031	0.0036	0.0311	0.0263	-0.0278	-0.0323	-0.0199	0.0275	0.065	0.0308	-0.0325	-0.0937	0.0325	0.0302	-0.052	-0.0407	-0.0459	-0.0415	0.0423	0.0567
COc1nnc2ccc(N3CCC(c4ccc(OCCN5CCN(C)C(=O)[C@H]5C)cc4)CC3)nn12 [AZD5153] + CC1(C)CCC(CN2CCN(c3ccc(C(=O)NS(=O)(=O)c4ccc(NCC5CCOCC5)c([N+](=O)[O-])c4)c(Oc4cnc5[nH]ccc5c4)c3)CC2)=C(c2ccc(Cl)cc2)C1 [Venetoclax] (first compound max 1 µM, 7x7, partner max 1 µM)	0.0234	-0.036	-0.0291	0.0122	0.0401	-0.055	0.0174	-0.0695	-0.0378	-0.0617	-0.0109	-0.049	-0.0605	-0.0373	-0.0766	-0.0645	-0.0962	-0.0438	-0.0479	-0.0255
CC1(C)CCC(CN2CCN(c3ccc(C(=O)NS(=O)(=O)c4ccc(NCC5CCOCC5)c([N+](=O)[O-])c4)c(Oc4cnc5[nH]ccc5c4)c3)CC2)=C(c2ccc(Cl)cc2)C1 [Venetoclax] + CCN(CCO)CCCOc1ccc2c(Nc3cc(CC(=O)Nc4cccc(F)c4)[nH]n3)ncnc2c1 [AZD2811] (first compound max 1 µM, 7x7, partner max 1 µM)	-0.0398	-0.046	-0.005	0.0096	0.0684	-0.0052	-0.0346	0.0208	-0.0359	0.0345	-0.0361	-0.0231	-0.0193	-0.0086	-0.0012	0.106	-0.0262	-0.0587	0.045	-0.0209
Cc1c2c(nn1C)CSCc1cc(n(C)n1)CSc1cc(c3ccccc3c1)OCCCc1c(C(=O)O)n(C)c3c-2c(Cl)ccc13 [AZD5991] + C[C@@H]1COCCN1C2=NC(=NC(=C2)C3(CC3)[S@](=N)(=O)C)C4=C5C=CNC5=NC=C4 [AZD6738] (first compound max 1 µM, 7x7, partner max 10 µM)	-0.0265	0.0515	0.0683	0.0082	-0.0137	-0.0095	0.0026	-0.0496	-0.033	-0.0283	-0.0038	0.0076	-0.0329	0.0184	-0.024	-0.0291	0.0431	0.0016	0.0348	0.0549
CC1(C)CCC(CN2CCN(c3ccc(C(=O)NS(=O)(=O)c4ccc(NCC5CCOCC5)c([N+](=O)[O-])c4)c(Oc4cnc5[nH]ccc5c4)c3)CC2)=C(c2ccc(Cl)cc2)C1 [Venetoclax] + COc1cc(Nc2ncc3c(n2)-c2ccc(Cl)cc2C(c2c(F)cccc2OC)=NC3)ccc1C(=O)O [Alisertib] (first compound max 1 µM, 7x7, partner max 10 µM)	0.192	0.0127	-0.034	-0.0062	0.121	-0.03	-0.0704	-0.0414	-0.0799	0.018	0.0448	-0.0455	-0.0163	-0.0237	0.0423	0.0993	0.0173	-0.0208	-0.0323	-0.0104
CN(CCO)CC[C@H](CSc1ccccc1)Nc1ccc(S(=O)(=O)NC(=O)c2ccc(N3CCC([C@@H](O)c4ccccc4-c4ccc(Cl)cc4)CC3)cc2)cc1S(=O)(=O)C(F)(F)F [AZD4320] + Cc1cc2ncnn2cc1Nc1ncc2c(n1)n(C1CCOCC1)c(=O)n2C [AZD7648] (first compound max 1 µM, 7x7, partner max 10 µM)	0.0377	-0.0359	-0.0202	-0.0148	-0.0099	-0.0041	-0.055	-0.0718	0.0195	-0.0133	0.0356	-0.0105	-0.0104	0.0109	-0.0222	-0.0018	-0.0244	-0.0484	0.0058	-0.0214
CC(=O)Nc1cccc(-n2c(=O)n(C3CC3)c(=O)c3c(Nc4ccc(I)cc4F)n(C)c(=O)c(C)c32)c1 [Trametinib] + Cc1nc(-c2cn3c(n2)-c2ccc(-c4cnn(C(C)(C)C(N)=O)c4)cc2OCC3)n(C(C)C)n1 [Taselisib] (first compound max 1 µM, 7x7, partner max 10 µM)	0.0075	0.139	0.0758	0.219	0.0238	0.0277	0.0616	0.0405	-0.0092	0.162	0.0702	0.0183	0.0975	0.191	0.0363	0.0406	0.068	0.0312	0.106	0.187
Cc1c2c(nn1C)CSCc1cc(n(C)n1)CSc1cc(c3ccccc3c1)OCCCc1c(C(=O)O)n(C)c3c-2c(Cl)ccc13 [AZD5991] + CN(C)CCCOc1ccc(-c2ccc3ncc4c(c3c2)n(C2CCOCC2)c(=O)n4C)cn1 [AZD0156] (first compound max 1 µM, 7x7, partner max 1 µM)	0.0551	-0.0032	0.0186	0.0041	-0.0154	0.0081	-0.0024	-0.033	-0.0005	–	0.0091	-0.0277	-0.019	0.0239	-0.0007	0.0332	-0.0065	0.0373	-0.0217	0.0213
Cc1c2c(nn1C)CSCc1cc(n(C)n1)CSc1cc(c3ccccc3c1)OCCCc1c(C(=O)O)n(C)c3c-2c(Cl)ccc13 [AZD5991] + CCN(CCO)CCCOc1ccc2c(Nc3cc(CC(=O)Nc4cccc(F)c4)[nH]n3)ncnc2c1 [AZD2811] (first compound max 1 µM, 7x7, partner max 1 µM)	-0.0037	-0.003	0.063	0.0201	0.0379	0.0147	0.0191	–	-0.0257	0.0761	0.0085	-0.0431	-0.0173	-0.0106	0.0561	-0.0117	0.0649	0.0185	0.125	-0.0144
